Measurements from PubChem BioAssay (NCI).
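Cultured in 96-well plates, cells were exposed to test compound for 48 hours across five concentrations. TGI: concentration producing complete growth inhibition.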

Columns and labels:
Experiment in all cases: DTP human tumour cell line panel, 48 h
[1] = system: HOP-62 NSCLC
[2] = system: UACC-62 melanoma
[3] = system: SK-OV-3 ovarian
[4] = system: HL-60(TB) leukemia
[5] = system: M14 melanoma
[6] = system: T-47D breast
[7] = system: SF-268 CNS
[8] = system: CCRF-CEM leukemia
[9] = system: BT-549 breast
[10] = system: A498 renal
[11] = system: OVCAR-8 ovarian
[12] = system: ACHN renal
[13] = system: MOLT-4 leukemia
[14] = system: HOP-92 NSCLC
[15] = system: UACC-257 melanoma
[16] = system: HCC-2998 colon
[17] = system: A549 NSCLC
[18] = system: SK-MEL-5 melanoma
[19] = system: EKVX NSCLC
[20] = system: 786-0 renal

SMILES	TGI [1]	TGI [2]	TGI [3]	TGI [4]	TGI [5]	TGI [6]	TGI [7]	TGI [8]	TGI [9]	TGI [10]	TGI [11]	TGI [12]	TGI [13]	TGI [14]	TGI [15]	TGI [16]	TGI [17]	TGI [18]	TGI [19]	TGI [20]
Cc1ccc(NC(Nc2ccc(C)cc2C)=C(C(Cl)=C(Cl)Cl)[N+](=O)[O-])c(C)c1	34.2 µM	31.9 µM	39.8 µM	22 µM	21.3 µM	32.1 µM	33.2 µM	15.2 µM	38.8 µM	36.3 µM	33.9 µM	28.5 µM	31.2 µM	31.7 µM	35.7 µM	32.4 µM	28.4 µM	14.4 µM	29.8 µM	30.1 µM
C=C=C(CC1CCCCC1=O)S(=O)(=O)c1ccccc1 (stereo not given)	> 10 µM	> 10 µM	> 10 µM	2.5 µM	> 10 µM	> 10 µM	> 10 µM	7.24 µM	> 10 µM	> 10 µM	> 10 µM	> 10 µM	3.06 µM	> 10 µM	> 10 µM	> 10 µM	> 10 µM	> 10 µM	> 10 µM	> 10 µM
N=C1OC(CN2CCN(c3ccccc3)CC2)CN1C(=S)Nc1ccccc1 (stereo not given)	> 100 µM	> 100 µM	> 100 µM	> 100 µM	> 100 µM	> 100 µM	> 100 µM	> 100 µM	> 100 µM	> 100 µM	> 100 µM	> 100 µM	> 100 µM	> 100 µM	> 100 µM	> 100 µM	> 100 µM	> 100 µM	> 100 µM	> 100 µM
C=CCN(c1cc(OCc2ccccc2)c2[nH]cc(C)c2c1)S(C)(=O)=O	> 100 µM	> 100 µM	> 100 µM	> 100 µM	> 100 µM	60.6 µM	> 100 µM	> 100 µM	> 100 µM	90.9 µM	> 100 µM	> 100 µM	> 100 µM	> 100 µM	> 100 µM	> 100 µM	> 100 µM	> 100 µM	67.9 µM	> 100 µM
CC(=O)C1=C(C)N2C(=NC3=C(CCc4ccccc43)C2c2ccc(F)cc2)S1 (stereo not given)	> 100 µM	> 100 µM	> 100 µM	92.4 µM	> 100 µM	> 100 µM	> 100 µM	> 100 µM	> 100 µM	> 100 µM	> 100 µM	> 100 µM	6.54 µM	> 100 µM	> 100 µM	> 100 µM	> 100 µM	> 100 µM	> 100 µM	> 100 µM
CC(C)C1C(=O)N(c2c(F)c(F)c(F)c(F)c2F)C(=S)N1CCS(=O)c1ccccc1 (stereo not given)	40.8 µM	34.9 µM	34.9 µM	19.2 µM	30.6 µM	32.5 µM	32.6 µM	42.3 µM	30.9 µM	30.6 µM	32.6 µM	37.1 µM	49.7 µM	34.8 µM	35.5 µM	21.8 µM	40.1 µM	27.3 µM	31.3 µM	32.1 µM
CC[C@H](C)[C@H]1NC(=O)[C@@H](NC(=O)[C@@H](CC(C)C)N(C)C(=O)C2CCCN2C(=O)[C@H](C)O)[C@@H](C)OC(=O)[C@H](Cc2ccc(OC)cc2)N(C)C(=O)[C@@H]2CCCN2C(=O)[C@H](CCCCNC(=O)OCc2ccccc2)NC(=O)[C@H](C)C(=O)[C@H](C(C)C)OC(=O)C[C@@H]1O (stereo not given in full)	> 25 µM	> 25 µM	> 25 µM	> 25 µM	> 25 µM	> 25 µM	> 25 µM	> 25 µM	> 25 µM	> 25 µM	> 25 µM	> 25 µM	> 25 µM	> 25 µM	> 25 µM	9.79 µM	> 25 µM	> 25 µM	> 25 µM	> 25 µM
